# Laboratory results published in US7745619B2, “Vinca derivatives” (priority 2003, dated 2010).
# Like-named read-outs stand apart in the source and are kept apart here.
# Legend:
# [1] = system: HeLa S-3 cells; experiment: HeLa GI50 determination (SRB growth inhibition); assay type: cell-based, human; details: Homo sapiens, HeLa S3, 48 h
# Description: Growth inhibition (GI50) values were measured on the human cervical carcinoma cell line, HeLa S-3, which were selected for growth on plastic. The HeLa cell assay was based on the description of Skehan et al., J. Natl. Cancer Inst., 82:1107-12 (1990), which is hereby incorporated by reference in its entirety. HeLa cells were plated at 2×10^4 cells/well in 96 well plates. One day later, a control plate was fixed by the addition of TCA to 5%. After five rinses with tap water, the plate was air-dried and stored at 4° C. Test compounds were added to the remaining plates at 10-fold dilutions. Two days later, all plates were fixed as described above. Cells were then stained by the addition of 100 μL per well of 0.4% sulforhodamine B (SRB) in 1% acetic acid for 30 min at 4° C. Wells were then quickly rinsed 5× with 1% acetic acid and allowed to air dry. The SRB was then solubilized by the addition of 100 μL per well of unbuffered 10 mM Tris base. Dye was quantified by measuring absorbance at 490 nm on a Molecular Devices microplate reader. Growth inhibition was calculated according to the following equation: GI=100×(T−T0)/(C−T0), where the optical density (OD) of the test well after 2 days of treatment was T, the OD of the wells in the control plate on day 0 was T0 and C was the OD of untreated wells. Plots of percent growth inhibition versus inhibitor concentration were used to determine the GI50.
# [2] = system: MCF-7 cells; experiment: MCF-7 GI50 determination (crystal violet growth inhibition); assay type: cell-based, human; details: Homo sapiens, MCF7, 96 h
# Description: Growth inhibition (GI50) values were measured on the human breast carcinoma line, MCF-7. MCF-7 cells were plated at 2×10^4 cells/well in 96 well plates and grown for 24 hours in drug free media. On day 2, test compounds were added to the plates at 10-fold dilutions. Four days later, cells were fixed by the addition of glutaraldehyde to 0.75%. After 30 min, the fixed cells were extensively rinsed with distilled water and dried at room temperature for one hour. The cells were then stained with a 0.2% crystal violet solution for one hour at room temperature. Unbound stain was removed by ten rinses with tap water and plates were allowed to air dry for 30 min. The crystal violet was then solubilized by the addition of 10% acetic acid for 15 min and quantified by measuring absorbance at 570 nm on a Molecular Devices microplate reader. Growth inhibition was calculated according to the following equation: GI=[…], where the optical density (OD) of the test well after 4 days of treatment was T, the OD of the wells in the control plate on day 0 was T0. Plots of percent growth inhibition versus inhibitor concentration were used to determine the GI50.
# [3] = read-out: MCF-7 Cells GI50 (nM)
# [4] = HeLa S-3 cells, 2 days of treatment, sulforhodamine B, read-out: HeLa Cells GI50
# [5] = MCF-7 cells, 4 days of treatment, crystal violet, read-out: MCF-7 Cells GI50
Compound,GI50 ([1]; read-out: HeLa Cells GI50 (nM)) [nM],"GI50 [2, 3] [nM]","GI50 [1, 4] [nM]","GI50 [2, 5] [nM]"
"CC[C@]1(O)C[C@H]2CN(CCc3c([nH]c4ccc(Nc5ccc(C(F)(F)F)cc5)cc34)[C@@](C(=O)OC)(c3cc4c(cc3OC)N(C)[C@H]3[C@@](O)(C(=O)OC)[C@H](OC(C)=O)[C@]5(CC)C=CCN6CC[C@]43[C@@H]65)C2)C1 [Example 84, 12′-(4-trifluoromethylphenylamino)vinblastine]",30,500,,
"CCCSc1ccc2[nH]c3c(c2c1)CCN1C[C@H](C[C@@](O)(CC)C1)C[C@]3(C(=O)OC)c1cc2c(cc1OC)N(C)[C@H]1[C@@](O)(C(=O)OC)[C@H](OC(C)=O)[C@]3(CC)C=CCN4CC[C@]21[C@@H]43 [Example 39, 12′-(propylsulfanyl) vinblastine]",,,25,25
"CC[C@]1(O)C[C@H]2CN(CCc3c([nH]c4ccc(SCCCN5CCOCC5)cc34)[C@@](C(=O)OC)(c3cc4c(cc3OC)N(C)[C@H]3[C@@](O)(C(=O)OC)[C@H](OC(C)=O)[C@]5(CC)C=CCN6CC[C@]43[C@@H]65)C2)C1 [Example 49, 12′-(3-(morpholin-4-yl)propylsulfanyl) vinblastine]",8,30,,
"CC[C@]1(O)C[C@H]2CN(CCc3c([nH]c4ccc(C(C)=O)cc34)[C@@](C(=O)OC)(c3cc4c(cc3OC)N(C)[C@H]3[C@@](O)(C(=O)OC)[C@H](OC(C)=O)[C@]5(CC)C=CCN6CC[C@]43[C@@H]65)C2)C1 [Example 70, 12′-acetylvinblastine]",200,100,,
"CC[C@]1(O)C[C@H]2CN(CCc3c([nH]c4cc(I)c(I)cc34)[C@@](C(=O)OC)(c3cc4c(cc3OC)N(C)[C@H]3[C@@](O)(C(=O)OC)[C@H](OC(C)=O)[C@]5(CC)C=CCN6CC[C@]43[C@@H]65)C2)C1 [Example 91, 12′,13′-diiodovinblastine]",,,60,200
"CC[C@]1(O)C[C@H]2CN(CCc3c([nH]c4ccc(SC)cc34)[C@@](C(=O)OC)(c3cc4c(cc3OC)N(C=O)[C@H]3[C@@](O)(C(=O)OC)[C@H](OC(C)=O)[C@]5(CC)C=CCN6CC[C@]43[C@@H]65)C2)C1 [Example 42, 12′-(methylsulfanyl) vincristine]",,,3,3
"CCCCCCc1ccc2[nH]c3c(c2c1)CCN1C[C@H](C[C@@](O)(CC)C1)C[C@]3(C(=O)OC)c1cc2c(cc1OC)N(C=O)[C@H]1[C@@](O)(C(=O)OC)[C@H](OC(C)=O)[C@]3(CC)C=CCN4CC[C@]21[C@@H]43 [Example 74, 12′-hexylvincristine]",,,30,40
"CC[C@]1(O)C[C@H]2CN(CCc3c([nH]c4ccc(C#CCN(C)C)cc34)[C@@](C(=O)OC)(c3cc4c(cc3OC)N(C)[C@H]3[C@@](O)(C(=O)OC)[C@H](OC(C)=O)[C@]5(CC)C=CCN6CC[C@]43[C@@H]65)C2)C1 [Example 24, 12′-(N,N-dimethylaminopropynyl)vinblastine]",300,400,,
"CC[C@]1(O)C[C@H]2CN(CCc3c([nH]c4ccc(/C=C/CNC(=O)OC(C)(C)C)cc34)[C@@](C(=O)OC)(c3cc4c(cc3OC)N(C)[C@H]3[C@@](O)(C(=O)OC)[C@H](OC(C)=O)[C@]5(CC)C=CCN6CC[C@]43[C@@H]65)C2)C1 [Example 31, 12′-(3-tert-butoxycarbonylaminopropenyl) vinblastine]",600,300,,
"CC[C@]1(O)C[C@H]2CN(CCc3c([nH]c4ccc(C#N)cc34)[C@@](C(=O)OC)(c3cc4c(cc3OC)N(C)[C@H]3[C@@](O)(C(=O)OC)[C@H](OC(C)=O)[C@]5(CC)C=CCN6CC[C@]43[C@@H]65)C2)C1 [Example 65, 12′-cyanovinblastine]",,,3,3
"CC[C@]1(O)C[C@H]2CN(CCc3c([nH]c4ccc(CCC(C)C)cc34)[C@@](C(=O)OC)(c3cc4c(cc3OC)N(C=O)[C@H]3[C@@](O)(C(=O)OC)[C@H](OC(C)=O)[C@]5(CC)C=CCN6CC[C@]43[C@@H]65)C2)C1 [Example 73, 12′-(3-methylbutyl) vincristine]",200,300,,
"CC[C@]1(O)C[C@H]2CN(CCc3c([nH]c4ccc(SSC(C)C)cc34)[C@@](C(=O)OC)(c3cc4c(cc3OC)N(C)[C@H]3[C@@](O)(C(=O)OC)[C@H](OC(C)=O)[C@]5(CC)C=CCN6CC[C@]43[C@@H]65)C2)C1 [Example 58, 12′-(isopropyldisulfanyl) vinblastine]",200,100,,
"CC[C@]1(O)C[C@H]2CN(CCc3c([nH]c4ccc(/C=C/C(=O)OC(C)(C)C)cc34)[C@@](C(=O)OC)(c3cc4c(cc3OC)N(C)[C@H]3[C@@](O)(C(=O)OC)[C@H](OC(C)=O)[C@]5(CC)C=CCN6CC[C@]43[C@@H]65)C2)C1 [Example 27, 12′-(2-tert-butoxycarbonylvinyl) vinblastine]",200,300,,
"CC[C@]1(O)C[C@H]2CN(CCc3c([nH]c4ccc(SCc5ccc(OC)cc5)cc34)[C@@](C(=O)OC)(c3cc4c(cc3OC)N(C)[C@H]3[C@@](O)(C(=O)OC)[C@H](OC(C)=O)[C@]5(CC)C=CCN6CC[C@]43[C@@H]65)C2)C1 [Example 36, 12′-(4-methoxybenzylsulfanyl)vinblastine]",30,50,,
"CC[C@]1(O)C[C@H]2CN(CCc3c([nH]c4ccc(/C=C/C(=O)O)cc34)[C@@](C(=O)OC)(c3cc4c(cc3OC)N(C)[C@H]3[C@@](O)(C(=O)OC)[C@H](OC(C)=O)[C@]5(CC)C=CCN6CC[C@]43[C@@H]65)C2)C1 [Example 28, 12′-(2-carboxylvinyl) vinblastine]",100,300,,
"CC[C@]1(O)C[C@H]2CN(CCc3c([nH]c4ccc(C#C[Si](C)(C)C)cc34)[C@@](C(=O)OC)(c3cc4c(cc3OC)N(C)[C@H]3[C@@](O)(C(=O)OC)[C@H](OC(C)=O)[C@]5(CC)C=CCN6CC[C@]43[C@@H]65)C2)C1 [Example 16, 12′-(trimethylsilylethynyl)vinblastine]",,,300,40
"CC[C@]1(O)C[C@H]2CN(CCc3c([nH]c4ccc(-c5cccc(F)c5)cc34)[C@@](C(=O)OC)(c3cc4c(cc3OC)N(C)[C@H]3[C@@](O)(C(=O)OC)[C@H](OC(C)=O)[C@]5(CC)C=CCN6CC[C@]43[C@@H]65)C2)C1 [Example 11, 12′-(3-fluorophenyl) vinblastine]",300,300,,
"CC[C@]1(O)C[C@H]2CN(CCc3c([nH]c4ccc(SCCNC(C)=O)cc34)[C@@](C(=O)OC)(c3cc4c(cc3OC)N(C)[C@H]3[C@@](O)(C(=O)OC)[C@H](OC(C)=O)[C@]5(CC)C=CCN6CC[C@]43[C@@H]65)C2)C1 [Example 52, 12′-(2-(acetylamino)ethylsulfanyl) vinblastine]",200,300,,
"CC[C@]1(O)C[C@H]2CN(CCc3c([nH]c4ccc(C(=O)NC)cc34)[C@@](C(=O)OC)(c3cc4c(cc3OC)N(C)[C@H]3[C@@](O)(C(=O)OC)[C@H](OC(C)=O)[C@]5(CC)C=CCN6CC[C@]43[C@@H]65)C2)C1 [Example 69, 12′-N-(methylaminocarbonyl)vinblastine]",600,> 1000,,
"CC[C@]1(O)C[C@H]2CN(CCc3c([nH]c4ccc(N5CCCCC5)cc34)[C@@](C(=O)OC)(c3cc4c(cc3OC)N(C)[C@H]3[C@@](O)(C(=O)OC)[C@H](OC(C)=O)[C@]5(CC)C=CCN6CC[C@]43[C@@H]65)C2)C1 [Example 85, 12′-(1-piperidinyl) vinblastine]",20,30,,
